Measured values: PubChem BioAssay (NCI)
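Protocol summary: plate cells (96-well), add compound at 5 concentrations, incubate 48 h, interpolate endpoints linearly. TGI denotes the concentration required for complete inhibition of growth.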

Columns and labels:
Assay in all cases: NCI-60 cell line screen, 48 h
[1] = tested on: 786-0 renal
[2] = tested on: A498 renal
[3] = tested on: A549 NSCLC
[4] = tested on: ACHN renal
[5] = tested on: CAKI-1 renal
[6] = tested on: CCRF-CEM leukemia
[7] = tested on: COLO 205 colon
[8] = tested on: DLD-1 colon
[9] = tested on: DMS 114 small cell lung
[10] = tested on: EKVX NSCLC
[11] = tested on: HCC-2998 colon
[12] = tested on: HCT-116 colon
[13] = tested on: HL-60(TB) leukemia
[14] = tested on: HOP-18 NSCLC
[15] = tested on: HOP-62 NSCLC
[16] = tested on: HOP-92 NSCLC
[17] = tested on: IGROV1 ovarian
[18] = tested on: K-562 leukemia
[19] = tested on: KM12 colon
[20] = tested on: KM20L2 colon
[21] = tested on: LOX IMVI melanoma
[22] = tested on: LXFL 529 NSCLC
[23] = tested on: M14 melanoma
[24] = tested on: M19-MEL melanoma
[25] = tested on: MALME-3M melanoma
[26] = tested on: NCI-H23 lung
[27] = tested on: NCI-H460 lung
[28] = tested on: NCI-H522 lung
[29] = tested on: OVCAR-3 ovarian
[30] = tested on: OVCAR-4 ovarian
[31] = tested on: OVCAR-5 ovarian
[32] = tested on: OVCAR-8 ovarian
[33] = tested on: RPMI-8226 leukemia
[34] = tested on: RXF 393 renal
[35] = tested on: RXF-631 renal
[36] = tested on: SF-268 CNS
[37] = tested on: SF-295 CNS
[38] = tested on: SF-539 CNS
[39] = tested on: SK-MEL-2 melanoma
[40] = tested on: SK-MEL-28 melanoma
[41] = tested on: SK-MEL-5 melanoma
[42] = tested on: SK-OV-3 ovarian
[43] = tested on: SN12C renal
[44] = tested on: SNB-19 CNS
[45] = tested on: SNB-75 CNS
[46] = tested on: SNB-78 CNS
[47] = tested on: SW-620 colon
[48] = tested on: TK-10 renal
[49] = tested on: U251 CNS
[50] = tested on: UACC-257 melanoma
[51] = tested on: UACC-62 melanoma
[52] = tested on: UO-31 renal
[53] = tested on: XF 498 CNS
[54] = tested on: HCT-15 colon
[55] = tested on: HT29 colon
[56] = tested on: MOLT-4 leukemia
[57] = tested on: NCI-H226 lung

CC1NOC(=O)C1N=Nc1ccccc1Cl (stereo not drawn)
TGI [1]: > 100 µM
TGI [2]: 49.3 µM
TGI [3]: > 100 µM
TGI [4]: > 100 µM
TGI [5]: > 100 µM
TGI [6]: > 100 µM
TGI [7]: > 100 µM
TGI [8]: > 100 µM
TGI [9]: > 100 µM
TGI [10]: > 100 µM
TGI [11]: > 100 µM
TGI [12]: > 100 µM
TGI [13]: 52.2 µM
TGI [14]: > 100 µM
TGI [15]: > 100 µM
TGI [16]: 54.6 µM
TGI [17]: > 100 µM
TGI [18]: > 100 µM
TGI [19]: > 100 µM
TGI [20]: > 100 µM
TGI [21]: > 100 µM
TGI [22]: > 100 µM
TGI [23]: > 100 µM
TGI [24]: 60.4 µM
TGI [25]: 65.7 µM
TGI [26]: > 100 µM
TGI [27]: > 100 µM
TGI [28]: 34.2 µM
TGI [29]: > 100 µM
TGI [30]: > 100 µM
TGI [31]: > 100 µM
TGI [32]: > 100 µM
TGI [33]: 54.7 µM
TGI [34]: > 100 µM
TGI [35]: > 100 µM
TGI [36]: > 100 µM
TGI [37]: > 100 µM
TGI [38]: > 100 µM
TGI [39]: > 100 µM
TGI [40]: > 100 µM
TGI [41]: 32.9 µM
TGI [42]: 94.4 µM
TGI [43]: > 100 µM
TGI [44]: > 100 µM
TGI [45]: 62.4 µM
TGI [46]: > 100 µM
TGI [47]: > 100 µM
TGI [48]: > 100 µM
TGI [49]: > 100 µM
TGI [50]: 47 µM
TGI [51]: > 100 µM
TGI [52]: 34.5 µM
TGI [53]: > 100 µM

CC(C(=O)Oc1ccc2ccccc2c1-c1c(O)ccc2ccccc12)c1ccccc1 (stereo not drawn)
TGI [1]: 29.3 µM
TGI [2]: 29.4 µM
TGI [3]: 30 µM
TGI [4]: 26.6 µM
TGI [5]: 24 µM
TGI [6]: 64.4 µM
TGI [7]: 33.4 µM
TGI [9]: 29.6 µM
TGI [10]: 37.3 µM
TGI [11]: 28.9 µM
TGI [12]: 25.6 µM
TGI [54]: 27.2 µM
TGI [13]: 35.1 µM
TGI [15]: 29.8 µM
TGI [16]: 23.5 µM
TGI [55]: 28.8 µM
TGI [17]: 34.9 µM
TGI [18]: 86.7 µM
TGI [19]: 26.1 µM
TGI [22]: 27.1 µM
TGI [23]: 27.7 µM
TGI [24]: 30.6 µM
TGI [25]: 34.8 µM
TGI [56]: 44.8 µM
TGI [57]: 26.5 µM
TGI [26]: 30.3 µM
TGI [27]: 27.6 µM
TGI [29]: 26.6 µM
TGI [30]: 23.5 µM
TGI [31]: 31 µM
TGI [32]: 50.2 µM
TGI [33]: 57.6 µM
TGI [34]: 22.9 µM
TGI [35]: 33.7 µM
TGI [37]: 25.6 µM
TGI [38]: 33.9 µM
TGI [39]: 29.7 µM
TGI [40]: 29.2 µM
TGI [41]: 26.8 µM
TGI [42]: 29.6 µM
TGI [43]: 29.7 µM
TGI [44]: 28.4 µM
TGI [46]: 33.9 µM
TGI [47]: 31.8 µM
TGI [48]: 32.8 µM
TGI [49]: 28.7 µM
TGI [50]: 27.6 µM
TGI [51]: 27 µM
TGI [52]: 6.37 µM
TGI [53]: 27.3 µM
